Measurements: US10829458B2 (Araxes Pharma LLC, priority 2015, dated 2020)

Each molecule was assayed against T1, KRAS G12C 1-169, his-tagged protein, GDP-loaded (Homo sapiens, UniProt P01116, G12C) (assay: Biochemical assay: covalent modification of KRAS G12C measured by mass spectrometry (RapidFire/TOF or Q-Exactive)). Conditions: covalent binding to KRAS G12C; compounds of structure (I).
T1 construct: KRAS G12C 1-169, his-tagged protein, GDP-loaded
Experimental: Test compounds were prepared as 10 mM stock solutions in DMSO (Fisher cat #BP-231-100). KRAS G12C 1-169, his-tagged protein, GDP-loaded was diluted to 2 μm in buffer (20 mM Hepes, 150 mM NaCl, 1 mM MgCl2). Compounds were tested for activity as follows:
Compounds were diluted to 50× final test concentration in DMSO in 96-well storage plates. Compound stock solutions were vortexed before use and observed carefully for any sign of precipitation. Dilutions were as follow: • For 100 μM final compound concentration, compounds were diluted to 5000 μM (5 μl 10 mM compound stock+5 μl DMSO and mixed well by pipetting. • For 30 μM final compound concentration, compounds were diluted to 1500 μM (3 μl 10 mM compound stock+17p DMSO) and mixed well by pipetting. • For 10 μM final compound concentration, compounds were diluted to 500 μM (2 μl 10 mM compound stock+38p DMSO) and mixed well by pipetting. 49p of the stock protein solution was added to each well of a 96-well PCR plate (Fisher cat #1423027). 1 μl of the diluted 50× compounds were added to appropriate wells in the PCR plate using 12-channel pipettor. Reactions were mixed carefully and thoroughly by pipetting up/down with a 200·1 multi-channel pipettor. The plate was sealed well with aluminum plate seal, and stored in drawer at room temperature for 30 min, 2 hour or 24 hrs. 5·1 of 2% formic acid (Fisher cat #A117) in DI H2O was then added to each well followed by mixing with a pipette. The plate was then resealed with aluminum seal and stored on dry ice until analyzed as described below.
The above described assays were analyzed by mass spectrometry according to one of the following two procedures:
The MS instrument is set to positive polarity, 2 GHz resolution, and low mass (1700) mode and allowed to equilibrate for 30 minutes. The instrument is then calibrated, switched to acquisition mode and the appropriate method loaded.
After another 30 minute equilibration time, a blank batch (i.e., buffer) is run to ensure equipment is operating properly. The samples are thawed at 37° C. for 10 minutes, briefly centrifuged, and transfer to the bench top. Wells A1 and H12 are spiked with 1 uL 500 uM internal standard peptide, and the plates centrifuged at 2000×g for 5 minutes. The method is then run and masses of each individual well recorded.
The masses (for which integration data is desired) for each well are pasted into the platemap and exported from the analysis. Masses for the internal standards are exported as well. The data at 50 ppm is extracted for the +19 charge state, and identity of well A1 is assigned using the internal standard spike and integrated. Peak data is exported as a TOF list and the above steps are repeated individually, for the +20, 21, 22, 23, 24, and 25 charge states.
The masses and peak intensities of KRAS G12C protein species were measured using a Dionex RSLCnano system (Thermo Scientific) connected to a Q Exactive Plus mass spectrometer (Thermo Scientific).
[…] of sample was each loaded onto a Aeris™ 3.6 μm WIDEPORE C4 200 Å, LC Column 50×2.1 mm column maintained at 40° C. at a flow rate of 600 μl min^−1 with […] (0.1% formic acid in acetonitrile). The liquid chromatography conditions were 20% solvent B for 1 min, 20% to 60% solvent B for 1.5 min, 60% to 90% solvent for 0.5 min, 90% solvent B for 0.2 min, 90% to 20% solvent B for 0.2 min, and then equilibrated for 1.6 min before the following sample injection. The flow rate was maintained at 600 μl min^−1 throughout the sample analysis.
The mass spectrometer was operated in profile mode at a resolution of 17500, 5 microscans, using 50 msec max injection time and an AGC target of 1e6, and a full mass range from 800-1850 m/z was recorded. The HCD trapping gas was optimized for maximum sensitivity for intact proteins. […]

Row | Compound | Binding %
1 | C=CC(=O)N1CCN(c2nc(N3CCCC3)nc3c(F)c(-c4c(O)cccc4F)c(Cl)cc23)CC1 [Example I-147, 1-(4-(6-chloro-8-fluoro-7-(2-fluoro-6-hydroxyphenyl)-2-(pyrrolidin-1-yl)quinazolin-4-yl)piperazin-1-yl)prop-2-en-1-one] | ++ (++ indicates binding activity from 50 to 90%)
2 | C=CC(=O)N1CCN(c2nc(OCCN3CCC3)nc3c(F)c(-c4c(O)cccc4F)c(Cl)cc23)CC1 [Example I-43, 1-(4-(2-(2-(azetidin-1-yl)ethoxy)-6-chloro-8-fluoro-7-(2-fluoro-6-hydroxyphenyl)quinazolin-4-yl)piperazin-1-yl) prop-2-en-1-one] | +++ (+++ indicates binding activity greater than 90%)
3 | C=CC(=O)N1CCN(c2nc(CCN(C)C)nc3c(F)c(-c4c(C)ccc5[nH]ncc45)c(Cl)cc23)CC1 [Example I-34, 1-(4-(6-chloro-2-(2-(dimethyl-amino)ethyl)-8-fluoro-7-(5-methyl-1H-indazol-4-yl)quinazolin-4-yl)piperazin-1-yl)prop-2-en-1-one] | +++ (+++ indicates binding activity greater than 90%)
4 | C=CC(=O)N1CCN(c2nc(OCCNC)nc3c(F)c(-c4c(O)cccc4F)c(Cl)cc23)CC1 [Example I-86, 1-(4-(6-chloro-8-fluoro-7-(2-fluoro-6-hydroxyphenyl)-2-(2-(methyl-amino)ethoxy)quinazolin-4-yl)piperazin-1-yl)prop-2-en-1-one] | +++ (+++ indicates binding activity greater than 90%)
5 | C=CC(=O)N1CCN(c2nc(OCCN3CC(F)(F)C3)nc3c(F)c(-c4cc(O)cc5ccccc45)c(Cl)cc23)CC1 [Example I-107, 1-(4-(6-chloro-2-(2-(3,3-difluoro-azetidin-1-yl)ethoxy)-8-fluoro-7-(3-hydroxy-naphthalen-1-yl)quinazolin-4-yl)piperazin-1-yl) prop-2-en-1-one] | +++ (+++ indicates binding activity greater than 90%)
6 | C=CC(=O)N1CCN(c2nc(NCCN3CC[C@@H](O)C3)nc3c(F)c(-c4c(O)cccc4F)c(Cl)cc23)CC1 [Example I-56, 1-(4-(6-chloro-8-fluoro-7-(2-fluoro-6-hydroxyphenyl)-2-(2-((R)-3-hydroxy-pyrrolidin-1-yl)ethylamino)quinazolin-4-yl)piperazin-1-yl) prop-2-en-1-one] | +++ (+++ indicates binding activity greater than 90%)
7 | C=CC(=O)N1CCN(c2nc(OCc3ccc(C)nc3)nc3c(F)c(-c4c(O)cccc4F)c(Cl)cc23)CC1 [Example I-104, 1-(4-(6-chloro-8-fluoro-7-(2-fluoro-6-hydroxyphenyl)-2-((6-methyl-pyridin-3-yl)methoxy)quinazolin-4-yl)piperazin-1-yl) prop-2-en-1-one] | + (+ indicates binding activity up to 50%)
8 | C=CC(=O)N1CCN(c2nc(OCCN3CCOCC3)nc3c(F)c(-c4c(O)ccc(F)c4F)c(Cl)cc23)CC1 [Example I-91, 1-(4-(6-chloro-7-(2,3-difluoro-6-hydroxyphenyl)-8-fluoro-2-(2-morpholino-ethoxy)quinazolin-4-yl)piperazin-1-yl)prop-2-en-1-one] | +++ (+++ indicates binding activity greater than 90%)
9 | C=CC(=O)N1CCN(c2nc(OCC3CCN(C4CC4)CC3)nc3c(F)c(-c4c(O)cccc4F)c(Cl)cc23)CC1 [Example I-172, 1-(4-(6-chloro-2-((1-cyclopropyl-piperidin-4-yl)methoxy)-8-fluoro-7-(2-fluoro-6-hydroxyphenyl)quinazolin-4-yl)piperazin-1-yl) prop-2-en-1-one] | +++ (+++ indicates binding activity greater than 90%)
10 | C=CC(=O)N1CCN(c2nc(N3CC(CN(C)C)C3)nc3c(F)c(-c4c(C)ccc5[nH]ncc45)c(Cl)cc23)CC1 [Example I-159, 1-(4-(6-chloro-2-(3-((dimethyl-amino)methyl)azetidin-1-yl)-8-fluoro-7-(5-methyl-1H-indazol-4-yl)quinazolin-4-yl)piperazin-1-yl) prop-2-en-1-one] | +++ (+++ indicates binding activity greater than 90%)
11 | C=CC(=O)N1CCN(c2nc(OCCNP(C)(C)=O)nc3c(F)c(-c4c(O)cccc4F)c(Cl)cc23)CC1 [Example I-207, N-(2-(4-(4-acryloyl-piperazin-1-yl)-6-chloro-8-fluoro-7-(2-fluoro-6-hydroxyphenyl)quinazolin-2-yloxy)ethyl)-P,P-dimethyl-phosphinic amide] | ++ (++ indicates binding activity from 50 to 90%)
12 | C=CC(=O)N1CCN(c2nc(OCC3CN(c4ncccn4)C3)nc3c(F)c(-c4c(C)ccc5[nH]ncc45)c(Cl)cc23)CC1 [Example I-170, 1-(4-(6-chloro-8-fluoro-7-(5-methyl-1H-indazol-4-yl)-2-((1-(pyrimidin-2-yl)azetidin-3-yl)methoxy)quinazolin-4-yl)piperazin-1-yl) prop-2-en-1-one] | ++ (++ indicates binding activity from 50 to 90%)
13 | C=CC(=O)N1CCN(c2c(C#N)c(NC3CCN(C4CC4)CC3)nc3c(F)c(-c4c(C)ccc5[nH]ncc45)c(Cl)cc23)CC1 [Example I-202, 4-(4-acryloyl-piperazin-1-yl)-6-chloro-2-((1-cyclopropyl-piperidin-4-yl)amino)-8-fluoro-7-(5-methyl-1H-indazol-4-yl) quinoline-3-carbonitrile] | ++ (++ indicates binding activity from 50 to 90%)
14 | C=CC(=O)N1CCN(c2nc(OCCc3ccc(F)cn3)nc3c(F)c(-c4c(O)cccc4F)c(Cl)cc23)CC1 [Example I-100, 1-(4-(6-chloro-8-fluoro-7-(2-fluoro-6-hydroxyphenyl)-2-(2-(5-fluoro-pyridin-2-yl)ethoxy)quinazolin-4-yl)piperazin-1-yl) prop-2-en-1-one] | +++ (+++ indicates binding activity greater than 90%)
15 | C=CC(=O)N1CCN(c2nc(OCc3ncco3)nc3c(F)c(-c4c(O)cccc4F)c(Cl)cc23)CC1 [Example I-109, 1-(4-(6-chloro-8-fluoro-7-(2-fluoro-6-hydroxyphenyl)-2-(oxazol-2-ylmethoxy)quinazolin-4-yl)piperazin-1-yl) prop-2-en-1-one] | +++ (+++ indicates binding activity greater than 90%)
16 | C=CC(=O)N1CCN(c2nc(OC3CCN(C4CC4)CC3)nc3c(F)c(-c4c(C)ccc5[nH]ncc45)c(Cl)cc23)CC1 [Example I-138] | +++ (+++ indicates binding activity greater than 90%)
17 | C=CC(=O)Oc1cccc(F)c1-c1c(Cl)cc2c(N3CCN(C(=O)C=C)CC3)nc(OCC(=O)N(C)C)nc2c1F [Example I-9, 2-(4-(4-acryloyl-piperazin-1-yl)-6-chloro-2-(2-(dimethylamino)-2-oxoethoxy)-8-fluoroquinazolin-7-yl)-3-fluorophenyl acrylate] | ++ (++ indicates binding activity from 50 to 90%)

Same assay, conditions: covalent binding to KRAS G12C; compounds of structure (III)

Row | Compound | Binding %
18 | C=CC(=O)N1CCN(c2ncnc3c(F)c(-c4c(O)cccc4F)c(Cl)cc23)CC1CO (stereo not shown) [III-8, 1-(4-(6-chloro-8-fluoro-7-(2-fluoro-6-hydroxy-phenyl)quinazolin-4-yl)-2-(hydroxy-methyl)piperazin-1-yl)prop-2-en-1-one] | ++ (++ indicates activity from 50% to 90%)
19 | C=CC(=O)N1[C@H](C)CN(c2ncnc3c(F)c(-c4c(C)ccc5[nH]ncc45)c(Cl)cc23)C[C@@H]1C [III-26, 1-((2S,6R)-4-(6-chloro-8-fluoro-7-(5-methyl-1H-indazol-4-yl)quinazolin-4-yl)-2,6-dimethyl-piperazin-1-yl)prop-2-en-1-one] | ++ (++ indicates activity from 50% to 90%)
